In patent US20060003020A1, “Anti-metastatic ability of mibefradil and gadolinium” (THE REGENTS OF THE UNIVERSITY OF MICHIGAN, priority 2004, published 2006):

Assays:
HT1080 cells [1] = experiment: Biocoat Matrigel invasion chamber assay of HT1080 cell invasion; assay type: cell-based; details: 22 hour incubation; for number of migrating cells: control cells approximately 80; for lowest dose that exhibits maximal inhibition of invasiveness: HT1080 cells; for HT1080 cell transmigration: dose response; for effect on cell invasiveness: pharmacologically appropriate doses
HT1080 cells [2] = experiment: High speed microscopy of intracellular Ca^2+ waves in HT1080 cells; assay type: cell-based; details: high speed imaging
Protocol: Recent studies have shown that Ca^2+ spikes of polarized neutrophils and colorectal tumor cell transfectants are associated with certain intracellular Ca^2+ waves (Kindzelskii et al., J. Immunol. 170:64-72, 2003; Wang et al., J Immunol. 170:795-804, 2003). To visualize these waves, images must be collected using very short shutter speeds to avoid image blurring due to wave motion and indo-1 diffusion while the shutter is open. […]
High speed microscopy was performed using an Axiovert 135 fluorescene microscope with a quartz condenser, quartz objective, and an AttoArc mercury lamp (Zeiss). To detect fluorescence changes in the short wavelength emission region of indo-1, a 355HT15 exciter, a 390LP dichroic reflector, and a 405DF43 emission filter were used. […]
A region of high Ca concentration, seen in the microscope as a bright spot within the cell, was brought about by the local opening of Ca^2+ channels. As indo-1 has a relatively high affinity for Ca^2+ and a finite amount of time was required for the signaling apparatus to pump-down free cytosolic Ca^2+, a low intensity “tail” was observed next to the region of bright Ca^2+ indo-1 fluorescence (i.e., the Ca^2+ wave has a low intensity tail on the side opposite to the direction of wave motion).

HT1080 cells [3] = experiment: Phagokinetic track assay of HT1080 cell motility; assay type: cell-based; details: for ability of HT1080 cells to clear the surrounding surface / inhibitory effect on clearing of the surface: 22 hours; for ability of HT1080 cells to clear the surrounding surface: brightfield microscopy; for cell motility by swept area ratio (total swept area divided by cell area): dose response, HT1080 cells; for inhibitory effect on clearing of the surface: concentrations expected to block the relevant Ca^2+ channels
Protocol: HT1080 cells were incubated on gold particle-coated glass coverslips for 22 hours. […] A suspension of 5000 cells/ml was treated with or without Ca^2+ channel blockers then seeded onto the gold-coated coverslips. […] The tracks produced by the cells were viewed by brightfield microscopy with a 10× objective. Thirty randomly selected tracks were measured for each slide.
As cells migrated on these surfaces, the gold particles were cleared from regions of the surface and frequently picked up by the cells, making the cells appear darker and the surrounding area appear lighter when viewed by microscopy.
The size of HT1080 cells varies considerably. To evaluate cell motility, a swept area ratio was used, which calculates total swept area divided by cell area.

HT1080 cells [4] = experiment: T-type channel expression and cell shape of mibefradil treated HT1080 cells
From the text: Thus, it was necessary to determine if blockade of T-type calcium channels on HT1080 cells caused morphological transformation.

HT1080 cells [5] = experiment: Microfluorometry of Ca^2+ spikes/oscillations in indo-1 labeled HT1080 cells; details: concentration not given

## COCC(=O)O[C@]1(CCN(C)CCCc2nc3ccccc3[nH]2)CCc2cc(F)ccc2[C@@H]1C(C)C [mibefradil]
HT1080 cells [1]
  number of migrating cells: approximately 25
  lowest dose that exhibits maximal inhibition of invasiveness: 5 µM
  HT1080 cell transmigration: inhibited HT1080 cell transmigration in a dose-dependent fashion
HT1080 cells [2]
  propagating Ca^2+ wave after addition: no propagating Ca^2+ wave was found
HT1080 cells [3]; 1.5 μM
  ability of HT1080 cells to clear the surrounding surface: significantly decreased
HT1080 cells [3]; 5 μM
  decrease of cell-swept area compared with control treated cells: approximately 90%
HT1080 cells [3]
  cell motility by swept area ratio (total swept area divided by cell area): significantly inhibited cell motility in a dose-dependent manner
HT1080 cells [4]
  cell shape / morphological transformation: maintain their rounded shape

## COc1ccc([C@@H]2Sc3ccccc3N(CCN(C)C)C(=O)[C@@H]2OC(C)=O)cc1 [diltiazem]
HT1080 cells [1]
  effect on cell invasiveness: no effect
HT1080 cells [3]
  inhibitory effect on clearing of the surface: no inhibitory effect was observed

## COC(=O)C1=C(C)NC(C)=C(C(=O)OCCN(C)Cc2ccccc2)C1c1cccc([N+](=O)[O-])c1 (stereo not shown) [nicardipine]
HT1080 cells [1]
  effect on cell invasiveness: no effect

## [Gd+3] [Gd^3+, gadolinium (Gd^3+)]
HT1080 cells [5]
  effect on Ca^2+ spikes: Ca^2+ spikes diminished then disappeared
HT1080 cells [1]
  number of migrating cells: approximately 22
  lowest dose that exhibits maximal inhibition of invasiveness: 20 µM
  HT1080 cell transmigration: inhibited HT1080 cell transmigration in a dose-dependent fashion
HT1080 cells [2]
  propagating Ca^2+ wave after addition: a Ca^2+ wave was observed in cells before, but not after addition
HT1080 cells [3]; 1.5 μM
  ability of HT1080 cells to clear the surrounding surface: significantly decreased
HT1080 cells [3]; Six μM
  HT1080 movement: almost completely abolished
HT1080 cells [3]
  cell motility by swept area ratio (total swept area divided by cell area): significantly inhibited cell motility in a dose-dependent manner

## COc1ccc(CCCOC(Cn2ccnc2)c2ccc(OC)cc2)cc1 (stereo not shown) [SKF96365]
HT1080 cells [1]
  effect on cell invasiveness: no effect
HT1080 cells [3]
  inhibitory effect on clearing of the surface: no inhibitory effect was observed

## NC(=O)c1nnn(Cc2cc(Cl)c(C(=O)c3ccc(Cl)cc3)c(Cl)c2)c1N [CAI, Carboxyamidotriazole]
HT1080 cells [3]; 10 μM
  ability of HT1080 cells to clear the surrounding surface: significantly decreased
